Test systems include UO-31 renal; DU-145 prostate; SF-268 CNS; A549 NSCLC; SW-620 colon; MDA-MB-435; SF-295 CNS; HS 578T breast; UACC-257 melanoma; OVCAR-8 ovarian.
Common to all, as to assay: NCI anticancer screen, dose series, 48 h

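Results reflect a 48-hour exposure of cells in 96-well plates to compound at five concentrations. GI50 marks 50% less growth. TGI is the concentration that stops growth completely.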

Consider `CCCC(=O)O[C@]1(C)CC[C@@H]2[C@H]3[C@@H]1[C@@H]1C[C@@](C)(O)[C@H](OC)CC[C@](C)(OC(=O)[C@@H]2C)[C@H]3O1`, for which the GI50 in the experiment with UO-31 renal was 40.4 µM; in the experiment on DU-145 prostate, 43.4 µM; with SF-268 CNS it was 38.6 µM; with A549 NSCLC, 40.6 µM; in the experiment on SW-620 colon, 34.4 µM; in the experiment on MDA-MB-435 it was 34.3 µM. In addition, the GI50 was 30 µM in the experiment on SF-295 CNS, 28.8 µM with HS 578T breast, 24.5 µM in the experiment on UACC-257 melanoma and 39.1 µM in the experiment with OVCAR-8 ovarian. The TGI in the experiment on UO-31 renal, in the experiment on DU-145 prostate, in the experiment on SF-268 CNS, with A549 NSCLC, in the experiment on SW-620 colon and in the experiment on MDA-MB-435 was over 100 µM throughout. Further, the TGI was over 100 µM with SF-295 CNS, 72.7 µM in the experiment on HS 578T breast, 60.7 µM in the experiment on UACC-257 melanoma and over 100 µM in the experiment with OVCAR-8 ovarian.

Regarding `COc1ccc(-c2ccc(OC)c(OC)c2OC)cc1`, the GI50 with UO-31 renal is 4.6 µM; with DU-145 prostate, 2.83 µM; with SF-268 CNS it was 9.28 µM; with A549 NSCLC, 5.74 µM; in the experiment with SW-620 colon it was 0.528 µM; with MDA-MB-435 it was 0.239 µM. For the same molecule, the GI50 in the experiment with SF-295 CNS is 1.7 µM; with HS 578T breast, 1.82 µM; in the experiment on UACC-257 melanoma, over 73.8 µM; in the experiment on OVCAR-8 ovarian, 6.9 µM. Besides, the TGI in the experiment on UO-31 renal was over 100 µM; in the experiment with DU-145 prostate, 19.3 µM; in the experiment on SF-268 CNS, over 100 µM; in the experiment with A549 NSCLC, over 100 µM; in the experiment on SW-620 colon, over 100 µM; with MDA-MB-435 it was 0.833 µM. The TGI in the experiment with SF-295 CNS is over 100 µM; in the experiment with HS 578T breast, over 23.1 µM; in the experiment with UACC-257 melanoma it was over 100 µM; with OVCAR-8 ovarian it was over 100 µM.

Consider `COc1cc2c(cc1C)NC(=O)/C2=C/c1ccnc2ccccc12`, for which the GI50 was 18.9 µM with UO-31 renal; 29.1 µM with DU-145 prostate; 18 µM in the experiment with SF-268 CNS; 20.8 µM in the experiment with A549 NSCLC; over 50 µM with SW-620 colon; 11.4 µM in the experiment with MDA-MB-435. Moreover, the GI50 is 25.3 µM in the experiment with SF-295 CNS, 40.1 µM with HS 578T breast, 9.77 µM with UACC-257 melanoma and 19.1 µM with OVCAR-8 ovarian. Further, the TGI in the experiment on UO-31 renal, in the experiment on DU-145 prostate, with SF-268 CNS, in the experiment on A549 NSCLC, with SW-620 colon and with MDA-MB-435 was over 50 µM each time. Further, the TGI with SF-295 CNS was over 50 µM; in the experiment on HS 578T breast it was over 50 µM; with UACC-257 melanoma, 48.9 µM; in the experiment on OVCAR-8 ovarian it was over 50 µM.

As for `CC(C)C[C@@H](N)[C@@H](O)C(=O)N[C@H](C(=O)N[C@H](C(=O)N[C@@H](CC(=O)O)C(=O)O)C(C)C)C(C)C`, the GI50 in the experiment with UO-31 renal, in the experiment with DU-145 prostate, with SF-268 CNS, in the experiment on A549 NSCLC, in the experiment on SW-620 colon and with MDA-MB-435 was over 20 µM in each case. The GI50 with SF-295 CNS, with HS 578T breast, in the experiment with UACC-257 melanoma and in the experiment with OVCAR-8 ovarian was over 20 µM each time. For the same molecule, the TGI in the experiment with UO-31 renal, in the experiment on DU-145 prostate, in the experiment with SF-268 CNS, in the experiment on A549 NSCLC, in the experiment with SW-620 colon and in the experiment on MDA-MB-435 was over 20 µM each time. Moreover, the TGI with SF-295 CNS, in the experiment on HS 578T breast, in the experiment with UACC-257 melanoma and in the experiment with OVCAR-8 ovarian was over 20 µM each time.

Consider `Cc1n[nH]c2ccccc2c1=O`, for which the TGI in the experiment on UO-31 renal, in the experiment on DU-145 prostate, in the experiment with SF-268 CNS, with A549 NSCLC, in the experiment with SW-620 colon and with MDA-MB-435 was over 100 µM each time. Also, the TGI with SF-295 CNS, in the experiment with HS 578T breast, in the experiment with UACC-257 melanoma and with OVCAR-8 ovarian was over 100 µM each time.

For `CN1CCN(C2=NC(=O)/C(=C\c3ccc(N(C)C)cc3)S2)CC1`, the GI50 in the experiment on UO-31 renal is 71 µM; in the experiment on DU-145 prostate, over 100 µM; in the experiment on SF-268 CNS it was over 100 µM; in the experiment on A549 NSCLC it was over 100 µM; in the experiment with SW-620 colon it was over 100 µM; in the experiment on MDA-MB-435, over 100 µM. The GI50 in the experiment on SF-295 CNS, with HS 578T breast, with UACC-257 melanoma and with OVCAR-8 ovarian was over 100 µM each time. In addition, the TGI in the experiment with UO-31 renal, in the experiment on DU-145 prostate, in the experiment with SF-268 CNS, with A549 NSCLC, in the experiment with SW-620 colon and with MDA-MB-435 was over 100 µM in each case. Also, the TGI in the experiment with SF-295 CNS, in the experiment on HS 578T breast, in the experiment on UACC-257 melanoma and with OVCAR-8 ovarian was over 100 µM each time.

On to `N=C1CCCC1C(=S)SCCC(N)=O` (stereo not given), for which the TGI in the experiment with UO-31 renal, in the experiment on DU-145 prostate, with SF-268 CNS, in the experiment with A549 NSCLC, with SW-620 colon and in the experiment on MDA-MB-435 was over 100 µM in each case. Moreover, the TGI in the experiment with SF-295 CNS, in the experiment on HS 578T breast, with UACC-257 melanoma and in the experiment on OVCAR-8 ovarian was over 100 µM in each case.

As for `COc1cc2c(/C=C3\C(=O)Nc4ccccc43)c[nH]c2cc1C`, the GI50 was 2.87 µM in the experiment with UO-31 renal; 0.0242 µM in the experiment with DU-145 prostate; 0.861 µM in the experiment with SF-268 CNS; under 0.0289 µM in the experiment on A549 NSCLC; under 0.0209 µM in the experiment on SW-620 colon; 0.0566 µM in the experiment with MDA-MB-435. Moreover, the GI50 with SF-295 CNS was 0.227 µM; in the experiment on HS 578T breast, under 0.0229 µM; with UACC-257 melanoma, under 0.01 µM; with OVCAR-8 ovarian, 0.0917 µM. Besides, the TGI with UO-31 renal is over 40.8 µM; with DU-145 prostate it was 12.3 µM; in the experiment on SF-268 CNS it was over 100 µM; in the experiment on A549 NSCLC, 17.3 µM; in the experiment with SW-620 colon it was 39.8 µM; in the experiment on MDA-MB-435, 0.403 µM. Besides, the TGI in the experiment on SF-295 CNS is 1.65 µM; with HS 578T breast it was 32.1 µM; in the experiment on UACC-257 melanoma, 26 µM; in the experiment on OVCAR-8 ovarian, 7.19 µM.

Source of the values: PubChem BioAssay (NCI).
